{"source": "PubChem BioAssay AID1745844", "about": "(Carcinogenic Potency Database (CPDB), 2022)", "tested_on": "rodent lifetime carcinogenesis bioassay, tumor incidence TD50", "assay": "carcinogenic potency in animals, long-term in vivo studies, CPDB compilation (AID 1745844)", "note": "“And” between values parts separate entries of the source, which are not always exact repeats. Equal entries are not always repeated. The source made the active and inactive calls. How the calls were made is not given here.", "data": [{"compound": "O=[O+][O-]", "values": [{"measurement": "TD50", "setting": "mouse, strain B6C3F1, females, inhaled, site: lung, lesion: alveolar/bronchiolar adenoma + alveolar/bronchiolar carcinoma, dosed 105 weeks, study length 105 weeks", "result": 1.88, "unit": "mg/kg/day"}, {"measurement": "TD50", "setting": "mouse, strain B6C3F1, females, inhaled, site: lung, lesion: alveolar/bronchiolar adenoma + alveolar/bronchiolar carcinoma, dosed 130 weeks, study length 130 weeks", "result": 2.09, "unit": "mg/kg/day"}, {"measurement": "TD50", "setting": "mouse, strain B6C3F1, females, inhaled, site: lung, lesion: alveolar/bronchiolar adenoma, dosed 130 weeks, study length 130 weeks", "result": 1.78, "unit": "mg/kg/day"}, {"measurement": "TD50", "setting": "mouse, strain B6C3F1, females, inhaled, site: lung, lesion: alveolar/bronchiolar carcinoma, dosed 105 weeks, study length 105 weeks", "result": 2.75, "unit": "mg/kg/day"}, {"measurement": "TD50", "setting": "mouse, strain B6C3F1, females, inhaled, site: uterus, lesion: endometrial stromal polyp, dosed 105 weeks, study length 105 weeks", "result": 6.49, "unit": "mg/kg/day"}, {"measurement": "TD50", "setting": "mouse, strain B6C3F1, males, inhaled, site: any site (literature study), lesion: several types, types named in the paper, dosed 104 weeks, study length 104 weeks", "result": 0.997, "unit": "mg/kg/day"}, {"measurement": "TD50", "setting": "mouse, strain B6C3F1, males, inhaled, site: any site (literature study), lesion: several types, types named in the paper, dosed 130 weeks, study length 130 weeks", "result": 1.54, "unit": "mg/kg/day"}, {"measurement": "TD50", "setting": "mouse, strain B6C3F1, males, inhaled, site: liver + mesentery + spleen, lesion: hemangiosarcoma, dosed 104 weeks, study length 104 weeks", "result": 0.314, "unit": "mg/kg/day"}, {"measurement": "TD50", "setting": "mouse, strain B6C3F1, males, inhaled, site: liver, lesion: hepatocellular adenoma + hepatoblastoma + hepatocellular carcinoma, dosed 104 weeks, study length 104 weeks", "result": 1.68, "unit": "mg/kg/day"}, {"measurement": "TD50", "setting": "mouse, strain B6C3F1, males, inhaled, site: liver, lesion: hepatocellular adenoma + hepatoblastoma + hepatocellular carcinoma, dosed 130 weeks, study length 130 weeks", "result": 2.02, "unit": "mg/kg/day"}, {"measurement": "TD50", "setting": "mouse, strain B6C3F1, males, inhaled, site: lung, lesion: alveolar/bronchiolar adenoma + alveolar/bronchiolar carcinoma, dosed 104 weeks, study length 104 weeks", "result": 0.894, "unit": "mg/kg/day"}, {"measurement": "TD50", "setting": "mouse, strain B6C3F1, males, inhaled, site: lung, lesion: alveolar/bronchiolar adenoma + alveolar/bronchiolar carcinoma, dosed 130 weeks, study length 130 weeks", "result": 0.961, "unit": "mg/kg/day"}, {"measurement": "TD50", "setting": "mouse, strain B6C3F1, males, inhaled, site: lung, lesion: alveolar/bronchiolar carcinoma, dosed 130 weeks, study length 130 weeks", "result": 0.633, "unit": "mg/kg/day"}, {"measurement": "carcinogen call", "setting": "rat, strain Fischer 344, females, inhaled, site: any site (literature study), lesion: several types, types named in the paper, dosed 104 weeks, study length 104 weeks", "result": "negative (inactive)"}, {"measurement": "carcinogen call", "setting": "rat, strain Fischer 344, females, inhaled, site: any site (literature study), lesion: several types, types named in the paper, dosed 124 weeks, study length 124 weeks", "result": "negative (inactive)"}, {"measurement": "TD50", "setting": "rat, strain Fischer 344, males, inhaled, site: any site (literature study), lesion: several types, types named in the paper, dosed 105 weeks, study length 105 weeks", "result": 1.2, "unit": "mg/kg/day"}, {"measurement": "TD50", "setting": "rat, strain Fischer 344, males, inhaled, site: any site (literature study), lesion: several types, types named in the paper, dosed 122 weeks, study length 124 weeks", "result": "0.138 mg/kg/day (inactive)"}, {"measurement": "TD50", "setting": "rat, strain Fischer 344, males, inhaled, site: liver, lesion: hepatocellular adenoma + hepatoblastoma + hepatocellular carcinoma, dosed 122 weeks, study length 124 weeks", "result": 2.41, "unit": "mg/kg/day"}, {"measurement": "TD50", "setting": "rat, strain Fischer 344, males, inhaled, site: thyroid gland, lesion: c-cell adenoma + c-cell carcinoma, dosed 105 weeks, study length 105 weeks", "result": "0.0156 mg/kg/day (inactive)"}, {"measurement": "TD50", "setting": "rat, strain Fischer 344, males, inhaled, site: thyroid gland, lesion: c-cell adenoma, dosed 105 weeks, study length 105 weeks", "result": 0.019, "unit": "mg/kg/day"}, {"measurement": "TD50", "setting": "rat, strain Sprague-Dawley, males, inhaled, site: lung, lesion: adenoma, dosed 86 weeks, study length 86 weeks", "result": 0.204, "unit": "mg/kg/day"}]}, {"compound": "O=C[C@H](NC(=O)N(CCCl)N=O)[C@@H](O)[C@H](O)[C@H](O)CO", "values": [{"measurement": "TD50", "setting": "rat, strain Sprague-Dawley, females, i.p., site: any site (literature study), lesion: malignant tumor, dosed 88 weeks, study length 114 weeks", "result": 0.108, "unit": "mg/kg/day"}, {"measurement": "TD50", "setting": "rat, strain Sprague-Dawley, females, i.p., site: peritoneal cavity, lesion: several types, types named in the paper, dosed 88 weeks, study length 114 weeks", "result": 0.0844, "unit": "mg/kg/day"}, {"measurement": "TD50", "setting": "rat, strain Sprague-Dawley, males, i.p., site: any site (literature study), lesion: malignant tumor, dosed 77 weeks, study length 100 weeks", "result": 0.0521, "unit": "mg/kg/day"}, {"measurement": "TD50", "setting": "rat, strain Sprague-Dawley, males, i.p., site: peritoneal cavity, lesion: several types, types named in the paper, dosed 77 weeks, study length 100 weeks", "result": 0.0241, "unit": "mg/kg/day"}]}, {"compound": "COc1ccc(OC)c(/C=C/c2ccc(N)cc2)c1", "values": [{"measurement": "TD50", "setting": "mouse, strain CD-1 HaM/ICR, females, in feed, site: any site (literature study), lesion: several types, types named in the paper, dosed 77 weeks, study length 90 weeks", "result": "118 mg/kg/day (inactive)"}, {"measurement": "carcinogen call", "setting": "mouse, strain CD-1 HaM/ICR, females, in feed, site: liver, lesion: several types, types named in the paper, dosed 77 weeks, study length 90 weeks", "result": "negative (inactive)"}, {"measurement": "TD50", "setting": "mouse, strain CD-1 HaM/ICR, females, in feed, site: lung, lesion: several types, types named in the paper, dosed 77 weeks, study length 90 weeks", "result": "152 mg/kg/day (inactive)"}, {"measurement": "TD50", "setting": "mouse, strain CD-1 HaM/ICR, males, in feed, site: any site (literature study), lesion: several types, types named in the paper, dosed 77 weeks, study length 90 weeks", "result": 126, "unit": "mg/kg/day"}, {"measurement": "TD50", "setting": "mouse, strain CD-1 HaM/ICR, males, in feed, site: liver, lesion: hepatoma, dosed 77 weeks, study length 90 weeks", "result": 376, "unit": "mg/kg/day"}, {"measurement": "TD50", "setting": "mouse, strain CD-1 HaM/ICR, males, in feed, site: liver, lesion: several types, types named in the paper, dosed 77 weeks, study length 90 weeks", "result": 329, "unit": "mg/kg/day"}, {"measurement": "TD50", "setting": "mouse, strain CD-1 HaM/ICR, males, in feed, site: lung, lesion: several types, types named in the paper, dosed 77 weeks, study length 90 weeks", "result": "95.9 mg/kg/day and 115 mg/kg/day"}, {"measurement": "TD50", "setting": "rat, strain Charles River CD (Sprague-Dawley), males, in feed, site: any site (literature study), lesion: several types, types named in the paper, dosed 47 weeks, study length 51 weeks", "result": 0.269, "unit": "mg/kg/day"}, {"measurement": "TD50", "setting": "rat, strain Charles River CD (Sprague-Dawley), males, in feed, site: ear, lesion: several types, types named in the paper, dosed 47 weeks, study length 51 weeks", "result": "1.45 mg/kg/day and 1.54 mg/kg/day"}, {"measurement": "TD50", "setting": "rat, strain Charles River CD (Sprague-Dawley), males, in feed, site: liver, lesion: several types, types named in the paper, dosed 47 weeks, study length 51 weeks", "result": 2.61, "unit": "mg/kg/day"}, {"measurement": "TD50", "setting": "rat, strain Charles River CD (Sprague-Dawley), males, in feed, site: skin, lesion: several types, types named in the paper, dosed 47 weeks, study length 51 weeks", "result": 1.48, "unit": "mg/kg/day"}, {"measurement": "TD50", "setting": "rat, strain Charles River CD (Sprague-Dawley), males, in feed, site: small intestine, lesion: several types, types named in the paper, dosed 47 weeks, study length 51 weeks", "result": 0.866, "unit": "mg/kg/day"}, {"measurement": "TD50", "setting": "rat, strain Charles River CD (Sprague-Dawley), males, in feed, site: stomach, lesion: several types, types named in the paper, dosed 47 weeks, study length 51 weeks", "result": 0.721, "unit": "mg/kg/day"}]}]}
